The values that follow come from patent US11369577B2, “Reprogramming-based models of neurodevelopmental disorders and uses thereof” (IEO—Istituto Europeo di Oncologia S.r.l., priority 2014, dated 2022).

Molecules are shown by their SMILES. Counter-ions that a name gives are not always drawn.

The target in this experiment is T1, LSD1 (Homo sapiens, UniProt O60341).
T1 construct: endogenous in cells; host or cells: Embryoid bodies formed from control human iPSC line CTR1R-C3
The experiment is described as follows: Embryoid body formation assay with LSD1 inhibitor treatment, RT-qPCR of GTF2I target genes. The experiment is classed as cell-based. To be noted: control iPSC line, treatment for 5 days at day 0 and day 4, final concentration 5 uM (Oryzon), 10 uM (DDP26095). As for the experimental part:
Retrotranscribed cDNAs have been obtained from 1 μg of total DNA-depleted RNA using the superscript VILO retrotranscription kit from Life Technologies according to manufacturer instructions.
For real time q-PCR analysis a total amount of cDNA corresponding to 10-50 ng of starting RNA has been used for each reaction. FAST SYBR green master mix from Life Technologies and 10 μM primers pair have been used.
10 uM RA has been added at day 0 or at day 4. At day 1 EBs have been plated on a low attachment dish and media was replaced with KO-DMEM (+P/S+Glut)(EB media) 20% FBS containing. […] Next, RNA extraction and cDNA preparation has been performed as described above.
(Quantitative PCR measures a nucleic acid by following its amplification.)

For `N[C@@H]1C[C@H]1c1ccc(NC(=O)c2cccc(N3CCOC3=O)c2)cc1` (relative stereo) [DDP26095, N-[4-[trans-2-aminocyclopropyl]phenyl]-3-(2-oxooxazolidin-3-yl)benzamide hydrochloride], the “BEND4 mRNA level (RT-qPCR, percentage of GAPDH) upon irreversible LSD1 inhibition” value is listed as “increased”. As to `Cl.N[C@H]1CC[C@H](N[C@@H]2C[C@H]2c2ccccc2)CC1` [Oryzon, (trans)-N1-((1R,2S)-2-phenylcyclopropyl)cyclohexane-1,4-diamine hydrochloride], the “BEND4 mRNA level (RT-qPCR, percentage of GAPDH) upon irreversible LSD1 inhibition” value is listed as “increased”.
